In PMC10669118 (2023):

Experiments:
[1] = test system: STAT (HEX) (DNA, G4) GGGCTGGGGATGGGGAGGGGG; assay: microscale thermophoresis; settings: 10 mM KCl, 20 mM sodium phosphate; pH 7.4, 22 °C, DMSO and Tween 20; said to be submicromolar
[2] = test system: 22AG (DNA, G4) AGGGTTAGGGTTAGGGTTAGGG; assay: FRET melting; settings: 10 mM KCl, 20 mM sodium phosphate, pH 7.4, 20 µM compound; for binding: 1 µM DNA (legend of Figure 3 prints them reversed)
[3] = test system: 22CTA (DNA, G4) AGGGCTAGGGCTAGGGCTAGGG; assay: FRET melting; settings: 10 mM KCl, 20 mM sodium phosphate, pH 7.4, 20 µM compound
[4] = test system: cKit1 (HEX) (DNA, G4) GGGAGGGCGCTGGGAGGAGGG; assay: microscale thermophoresis; settings: 10 mM KCl, 20 mM sodium phosphate; pH 7.4, 22 °C, DMSO and Tween 20; said to be submicromolar
[5] = test system: cKit1 (DNA, G4) GGGAGGGCGCTGGGAGGAGGG; assay: FRET melting; settings: 10 mM KCl, 20 mM sodium phosphate; pH 7.4; 20 µM compound, 1 µM DNA
[6] = test system: BclT (DNA, G4) GGGGGCCGTGGGGTGTGAGCTGGGG; assay: FRET melting; settings: 10 mM KCl, 20 mM sodium phosphate; pH 7.4; 20 µM compound, 1 µM DNA
[7] = test system: Hair (DNA, hairpin) GTATAGCTATTTTTATAGCTATA; assay: FRET melting; settings: 10 mM KCl, 20 mM sodium phosphate; pH 7.4; 20 µM compound, 1 µM DNA
[8] = test system: STAT (DNA, G4) GGGCTGGGGATGGGGAGGGGG; assay: FRET melting; settings: 10 mM KCl, 20 mM sodium phosphate; pH 7.4; 20 µM compound, 1 µM DNA
[9] = test system: VEGF (DNA, G4) GGGAGGGTTGGGGTGGG; assay: FRET melting; settings: 25 mM LiCl, 5 mM sodium phosphate; pH 7.4; 20 µM compound, 1 µM DNA
[10] = test system: Ct1 (DNA, G4) GGTGACAGGGGTATGGGGAGGGG; assay: FRET melting; settings: 10 mM KCl, 20 mM sodium phosphate; pH 7.4; 20 µM compound, 1 µM DNA
[11] = test system: cMyc (DNA, G4) TGAGGGTGGGTAGGGTGGGTAA; assay: FRET melting; settings: 10 mM KCl, 20 mM sodium phosphate; pH 7.4; 20 µM compound, 1 µM DNA

Question: For `CN(C)CCNC(=O)COc1ccc2c(c1)nc1ccn(CC(=O)NCCN(C)C)c(=O)n12`, which Kd [1] is on record?
Answer: Its Kd is 400 nM.

Question: With `N=C(N)NCCNC(=O)COc1cc2nc3ccn(CC(=O)NCCNC(=N)N)c(=O)n3c2c2ccccc12` as the compound, how does the binding [2] read?
Answer: Its binding is “yes”.

Question: Which binding ([3]; 1 µM DNA (legend of Figure 3 prints them reversed)) does the source give for `NCCNC(=O)COc1cc2nc3ccn(CC(=O)NCCN)c(=O)n3c2c2ccccc12` here?
Answer: Its binding is “yes”.

Question: And the binding [2]?
Answer: Its binding is “yes”.

Question: And the Kd [4]?
Answer: The Kd was 500 nM.

Question: For `NCCNC(=O)Cn1ccc2nc3cc(O)ccc3n2c1=O`, which ΔTm [5] is on record?
Answer: The ΔTm was 3 ± 2 °C.

Question: What about the ΔTm [6] of the same compound?
Answer: Its ΔTm is 0 ± 2 °C.

Question: And the ΔTm ([3]; 1 µM DNA)?
Answer: The ΔTm was 1 ± 2 °C.

Question: And the ΔTm [7]?
Answer: Its ΔTm is -1 ± 2 °C.

Question: And the ΔTm [8]?
Answer: Its ΔTm is 1 ± 2 °C.

Question: And the ΔTm [9]?
Answer: The ΔTm was 1 ± 2 °C.

Question: And the ΔTm [10]?
Answer: The ΔTm was 2 ± 2 °C.

Question: What about the ΔTm ([2]; 1 µM DNA) of the same compound?
Answer: Its ΔTm is 1 ± 2 °C.

Question: What about the ΔTm [11] of the same compound?
Answer: Its ΔTm is 1 ± 2 °C.

Question: With `NCCNC(=O)Cn1ccc2nc3cc(O)c4ccccc4c3n2c1=O` as the compound, how does the Kd [4] read?
Answer: The Kd was 600 nM.

Question: And the Kd [1]?
Answer: Its Kd is 500 nM.
